Patent US10233157B2, “SIK inhibitor for use in a method of treating an inflammatory and/or immune disorder” (Dana-Farber Cancer Institute, Inc., priority 2012, dated 2019)
Entries after “also recorded” stand apart in the source; their conditions may differ.

Assays:
MARK isoforms = details: previously reported; cited from earlier work
NUAK isoforms = details: previously reported; cited from earlier work
IKK-related kinases = details: previously reported; cited from earlier work
[1] = tested on: LPS-stimulated macrophages; assay: Cytokine secretion in TLR-stimulated bone-marrow derived macrophages; assay type: cell-based, mouse
Procedure: Bone-marrow derived macrophages were differentiated for 7 days in DMEM supplemented with 5 ng/ml recombinant M-CSF (R&D systems), 2 mM glutamine, 10% foetal calf serum, penicillin and streptomycin.
Following stimulation with ligands, the cell culture medium was removed, clarified by centrifugation for 10 min at 14000×g and the concentration of TNFα, IL-6, IL-10, IL-12p40, and RANTES were measured using the Bio-Plex Pro Assay system from Bio-Rad. IFNβ was measured using an ELISA kit from R&D Systems according to the manufacturers' instructions.
RNA was extracted using the RNeasy Micro Kit (Qiagen). cDNA was generated using the iScript cDNA synthesis kit and quantified by qPCR using the SsoFast EvaGreen Supermix (Bio-Rad Laboratories). […] Fold-induction for each gene was reported relative to untreated control cells, which was set to 1. The concentrations of TNFα, IL-6, IL-10, IL-12p40, and RANTES in culture supernatants were measured using the Bio-Plex Pro Assay system from Bio-Rad. Further details in supplementary information.
Following stimulation with ligands, the cell culture medium was removed, clarified by centrifugation for 10 min at 14000×g and the concentration of TNFα, IL-6, IL-10, IL-12p40 and RANTES were measured using the Bio-Plex Pro Assay system from Bio-Rad. IL-1ra and IFNβ were measured using ELISA kits from R&D Systems.

[2] = tested on: TLR-stimulated macrophages; assay: qPCR of CREB-dependent gene mRNA in TLR-stimulated macrophages; assay type: cell-based, mouse; details: for Nurr77 mRNA: LPS-stimulated macrophages; for IL-10 mRNA: TLR/LPS-stimulated macrophages
Procedure: Bone-marrow derived macrophages were differentiated for 7 days in DMEM supplemented with 5 ng/ml recombinant M-CSF (R&D systems), 2 mM glutamine, 10% foetal calf serum, penicillin and streptomycin. […]
mRNA was extracted from macrophages using the RNeasy Micro Kit following the manufacturers' instructions (Qiagen). cDNA was generated from 1 μg of total RNA using the iScript cDNA synthesis kit and quantified by qPCR using the SsoFast EvaGreen Supermix on a CFX96 real time system (Bio-Rad Laboratories). The relative expression of each gene was calculated from Ct values using the Pfaffl method^30 and was normalized against the mRNA levels of 18S RNA. The following primers were used: IL-10-F, […]; IL-10-R, […]; c-Fos-F, […]; c-Fos-R, […]; nurr1-F, […]; nurr1-R, […]; nurr77-F, […]; nurr77-R, […]; 18S-F, […]; 18S-R, […]; IL-1ra-F, […]; IL-1ra-R, […]; SPHK1-F, […]; SPHK1-R, […]; LIGHT-F, […]; LIGHT-R, […]; ArgI-F, […]; ArgI-R, […]; IFN-F, […]; IFNγ-R, […].
[…]. Biochem J 434:93-104) using the indicated antibodies. RNA was extracted using the RNeasy Micro Kit (Qiagen). cDNA was generated using the iScript cDNA synthesis kit and quantified by qPCR using the SsoFast EvaGreen Supermix (Bio-Rad Laboratories). The relative expression of each gene was calculated from Ct values using the Pfaffl method (Pfaffl M W (2001) A new mathematical model for relative quantification in real-time RT-PCR. Nucleic Acids Res 29:e45) and was normalized against the mRNA levels of 18S or GAPDH RNA. Fold-induction for each gene was reported relative to untreated control cells, which was set to 1. The concentrations of TNFα, IL-6, IL-10, IL-12p40, and RANTES in culture supernatants were measured using the Bio-Plex Pro Assay system from Bio-Rad. Further details in supplementary information.
(§1) mRNA was extracted from cells using the RNeasy Micro Kit following the manufacturers' instructions (Qiagen). cDNA was generated from 1 μg of total RNA using the iScript cDNA synthesis kit and quantified by qPCR using the SsoFast EvaGreen Supermix on a CFX96 real time system (Bio-Rad Laboratories). The relative expression of each gene was calculated from Ct values using the Pfaffl method (5) and was normalized against the mRNA levels of 18S RNA or GAPDH. Results are reported relative to untreated control cells, which was set to 1. The following primers were used: […]

CRTC3 = CRTC3 nuclear translocation (immunofluorescence, live imaging); assay type: cell-based; details: WT CRTC3
Excerpt: FIGS. 15A to 15C. SIK inhibitors induce the dephosphorylation of CRTC3 at Ser62, Ser162, Ser329 and Ser370 and its translocation to the nucleus. (FIG. 15A) HEK293 cells were transfected with FLAG-CRTC2, FLAG-CRTC3 or FLG-CRTC3[S162A]. Aliquots of the cell extracts were subjected to SDS-PAGE and immunoblotting using an antibody that recognizes CRTC2 phosphorylated at Ser171. […] (FIG. 15B) HEK293 cells were transfected with FLAG-CRTC3, FLAG-CRTC3[S62A/S162A/S329A/S370A] (termed CRTC3-4A) or with empty vector (FLAG-ev). […]. (FIG. 15C) Inhibition of SIKs promotes the translocation of endogenous CRTC3 to the nucleus. […].
RAW264.7 cells were grown on glass coverslips and treated with inhibitors for 1 h. Cells were then fixed for 10 min in 3.7% paraformaldehyde, permeabilized for 5 min using 0.1% Triton X-100 in PBS and blocked for 45 min using 3% BSA in PBS. Cells were stained with anti-CRTC3 (Abcam 1:200) and anti-α-tubulin (Santa Cruz 1:500) followed by anti-rabbit-alexa488 and anti-mouse-alexa594 (Invitrogen 1:500), respectively. Antibodies were diluted in blocking buffer and incubated with the cells for 45 min. […] Images were recorded every 30 s for 1.5 min prior to the addition of drug after which cells were imaged for a further 60 min.

SIK isoforms = assay: Kinase assays, SIK isoforms; assay type: biochemical; details: in vitro
AMPK-related kinases = assay type: biochemical; details: members of the AMPK subfamily other than SIKs
Procedure: (§2) Recombinant SIK1, SIK2, SIK3 were expressed as GST-fusion proteins in HEK293 cells and purified on a glutathione-Sepharose column. […] FLAG-CRTC3 was immunoprecipitated using anti-FLAG M2 agarose, washed in kinase buffer (50 mM Tris/HCl pH 7.4, 10 mM Mg acetate, 0.1 mM EGTA, 2 mM DTT) and reactions initiated by adding 4 U/ml recombinant kinase with 0.1 mM ATP (specific activity 3000 cpm/pmol). Phosphorylation of CRTC3 was monitored by autoradiography as well as immunoblotting using phosphospecific antibodies raised against Ser162, Ser329 and Ser370. […] Kinase profiling was performed as previously described (7) and performed by the International Centre for Kinase Profiling (www.kinase-screen.mrc.ac.uk).

[3] = tested on: protein kinases that possess a threonine residue at the gatekeeper site (Src, Lck, Yes, BTK, FGF and Ephrin receptors); assay: Kinase profiling, kinases with threonine at the gatekeeper site; assay type: biochemical; details: kinase panel; 1 μM KIN112, 0.1 μM HG-9-91-01
Procedure: as §2

LKB1−/− cells = assay: CREB-dependent gene transcription in IL-1 stimulated LKB1+/+ and LKB1−/− MEFs; assay type: cell-based, mouse
LPS-stimulated BMDMs = assay: Expression of macrophage markers in LPS-stimulated BMDMs (qPCR); assay type: cell-based, mouse
Procedure: FIGS. 10A to 10E. Inhibition of the LKB1-SIK-CRTC3-IL10 signaling axis drives the expression of markers of regulatory macrophages. (FIG. 10A) Effect of SIK inhibitors on the LPS-stimulated expression of LIGHT, SPHK1, Arg1 and IL-1ra (n=4, mean±SD). […] (FIG. 10C) Elevated expression of markers of regulatory macrophage in LKB1−/− macrophages. BMDMs were generated from LysM-Cre/LKB1+/+ and LysM-Cre/LKB1flox/flox mice and stimulated with 100 ng/ml LPS (mean±SD, n=3). (FIG. 10D) CRTC3 is required for the induction of markers of regulatory macrophages. […] LIGHT and SPHK1 mRNA was measured at 2 h and Arg1 at 8 h post-LPS stimulation (mean±SD, n=4). […] The experiment was carried out as in (FIG. 10D) except that BMDMs were generated from IL-10+/+ and IL-10−/− mice (mean±SD, n=4).
as §1

LPS-injected mice = assay: Cytokine levels in serum of LPS-challenged mice; assay type: in vivo, mouse
Procedure: C57BL/6 mice (8-12 week old male mice) were injected with vehicle control or 0-30 mg/kg of MRT68771. After 30 min, LPS was introduced by intraperitoneal injection (3.5 mg/kg). One hour later, the mice were sacrificed and the concentrations of TNFα, IL-10 and IFNβ in the sera were measured as described above.

[4] = Drug metabolism and pharmacokinetic properties; details: compared with MRT67307

O=C(NCCCNc1nc(Nc2cccc(NC(=O)N3CCCC3)c2)ncc1I)c1cccs1 [BX795]
inhibition of MARKs (MARK isoforms): potent inhibitor | inhibition of NUAK1 (NUAK isoforms): potent inhibitor | inhibition of IKK-related kinases (IKK-related kinases): potent inhibitor

CC1(C)C(=O)N([C@H]2CCc3c(O)cccc32)c2nc(Nc3cccc(CN4CCCC4)c3)ncc21 [MRT199665, 7-[(1S)-4-hydroxy-2,3-dihydro-1H-inden-1-yl]-5,5-dimethyl-2-{[3-(pyrrolidin-1-ylmethyl)phenyl]amino}-5,7-dihydro-6H-pyrrolo[2,3-d]pyrimidin-6-one]
IL-10 secretion ([1]; LPS-stimulated macrophages): stimulate IL-10 secretion in a dose dependent manner; also recorded: increased | Nurr77 mRNA [2]: increased | IL-10 mRNA [2]: increased | CRTC3 nuclear translocation (CRTC3): translocates to the nucleus

COc1ccc(N(C(=O)Oc2c(C)cccc2C)c2ccnc(Nc3ccc(N4CCN(C)CC4)cc3)n2)c(OC)c1 [KIN112]
inhibition of SIKs (SIK isoforms): potent inhibitor; also recorded: potently inhibited; also recorded: possess SIK inhibitory activity | inhibition of AMPK-related kinases (AMPK-related kinases): did not inhibit any other member | inhibition of protein kinases with a threonine residue at the gatekeeper site [3]: potent inhibitor; also recorded: inhibited | IL-10 secretion ([1]; LPS-stimulated macrophages): stimulate IL-10 secretion in a dose dependent manner; also recorded: increased | pro-inflammatory cytokine secretion ([1]; LPS-stimulated macrophages): greatly suppressed | IL-10 secretion ([1]; in response to TLR ligands): high levels of IL-10 | IL-12p40 secretion ([1]; in response to TLR ligands): low levels of IL-12p40 | Nurr77 mRNA [2]: increased | IL-10 mRNA [2]: increased | CREB-dependent gene transcription (LKB1−/− cells; LKB1+/+ cells): enhanced | transcription of Nurr1 and Nurr77 (LKB1−/− cells; LKB1−/− cells): only be increased to a small extent | IL-1ra mRNA (LPS-stimulated BMDMs; LPS-stimulated macrophages): greatly increased | mRNAs of regulatory macrophage markers (arginase-1, SPHK1, LIGHT) (LPS-stimulated BMDMs; TLR/LPS-stimulated macrophages): stimulating the production | switch of macrophage programme from classically activated towards regulatory phenotype (LPS-stimulated BMDMs; quiescent macrophages): switched their maturation programme from the classically activated route towards the regulatory phenotype

Cn1cc(-c2ccc(Nc3ncc(C4CC4)c(NCCCNC(=O)C4CCC4)n3)cc2)cn1 [MRT68771]
inhibition of SIKs (SIK isoforms): possess SIK inhibitory activity | IL-10 secretion ([1]; LPS-stimulated macrophages): elevated levels of IL-10 | pro-inflammatory cytokine secretion ([1]; LPS-stimulated macrophages): reduced levels of pro-inflammatory cytokines | IL-10 in serum (LPS-injected mice): elevated levels of IL-10 | pro-inflammatory cytokines in serum (LPS-injected mice): reduced levels of pro-inflammatory cytokines | drug metabolism and pharmacokinetic properties [4]: improved drug metabolism and pharmacokinetic properties

B1: IL-4: Murine IL-4 from Peprotech, control in macrophage marker experiments (protein, UniProt P07750 21-140, looked up)
Interleukin-4: HIHGCDKNHLREIIGILNEVTGEGTPCTEMDVPNVLTATKNTTESELVCRASKVLRIFYLKHGKTPCLKKNSSVLMELQRLFRAFRCLDSSISCTMNESKSTSLKDFLESLKSIMQMDYS
expression of FIZZ, Ym1 or Mgl2 (wound-healing M2a markers) (LPS-stimulated BMDMs): induced the expression | expression of LIGHT or SPHK1 (LPS-stimulated BMDMs; control experiments): not LIGHT or SPHK1
